Consider six compounds from ChEMBL document CHEMBL1154613, “Antagonists of the calcium receptor. 2. Amino alcohol-based parathyroid hormone secretagogues” (J Med Chem, 2009).

Structures are written as SMILES. pIC50: −log10 of the molar value.

Usually pIC50 stands for the IC50 on a negative log10 scale, so that one unit is a factor of ten. What is called half-life is the time needed for the level to fall by half in the phase considered. A low value points to fast loss. Usually MRT stands for the average time that molecules of a dose stay in the body. As usually defined, the Cmax is the maximum level reached in the sampled fluid or tissue. Broadly, the Tmax is the time at which the peak concentration occurs. As usually defined, the bioavailability is dose-corrected exposure relative to a reference, in per cent. A high value points to good availability.

Data set [1] deals with T1, Extracellular calcium-sensing receptor (Homo sapiens, UniProt P41180).
T1 sequence (P41180 whole entry): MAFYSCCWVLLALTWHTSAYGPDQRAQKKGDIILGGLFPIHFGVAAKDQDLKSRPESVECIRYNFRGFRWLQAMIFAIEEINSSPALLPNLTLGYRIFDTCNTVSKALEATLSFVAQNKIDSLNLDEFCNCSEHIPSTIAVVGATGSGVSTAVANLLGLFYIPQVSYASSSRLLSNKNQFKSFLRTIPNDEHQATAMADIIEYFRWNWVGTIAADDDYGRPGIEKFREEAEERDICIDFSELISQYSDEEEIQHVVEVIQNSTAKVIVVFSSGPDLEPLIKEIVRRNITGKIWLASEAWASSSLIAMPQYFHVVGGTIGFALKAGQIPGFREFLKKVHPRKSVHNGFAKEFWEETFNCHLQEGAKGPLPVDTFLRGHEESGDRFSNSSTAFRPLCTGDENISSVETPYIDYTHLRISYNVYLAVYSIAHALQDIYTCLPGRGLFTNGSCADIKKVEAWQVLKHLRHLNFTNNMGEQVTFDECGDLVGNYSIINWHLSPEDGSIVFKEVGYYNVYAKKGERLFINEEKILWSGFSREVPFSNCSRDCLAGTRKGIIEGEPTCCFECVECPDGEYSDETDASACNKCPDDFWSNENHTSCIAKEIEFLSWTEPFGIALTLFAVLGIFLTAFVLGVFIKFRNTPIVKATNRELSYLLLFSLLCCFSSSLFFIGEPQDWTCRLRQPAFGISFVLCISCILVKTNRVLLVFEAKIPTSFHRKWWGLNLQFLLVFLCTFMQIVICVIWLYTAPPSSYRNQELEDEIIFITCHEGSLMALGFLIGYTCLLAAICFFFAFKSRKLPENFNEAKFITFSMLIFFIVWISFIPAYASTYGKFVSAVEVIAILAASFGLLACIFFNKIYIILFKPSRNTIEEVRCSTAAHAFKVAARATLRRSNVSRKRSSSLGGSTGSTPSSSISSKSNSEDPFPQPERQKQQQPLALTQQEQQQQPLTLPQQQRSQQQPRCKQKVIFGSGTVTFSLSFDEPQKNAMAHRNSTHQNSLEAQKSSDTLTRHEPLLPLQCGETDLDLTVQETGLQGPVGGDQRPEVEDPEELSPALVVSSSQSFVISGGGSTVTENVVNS
Nature of the data set: Displacement of [3H](2-(2-hydroxyphenyl)-6-methyl-5-(2-methylpropyl)-3-(2-phenylethyl)-4(3H)-pyrimidinone) from human calcium receptor expressed in human HEK293 4.0-7 cells by liquid scintillation counting. The class given is cell-based.

A further data set deals with Cytochrome P450 2D6 (Homo sapiens, UniProt P10635). Nature of the data set: Inhibition of CYP2D6. The class given is ADME.
Sequence of Cytochrome P450 2D6 (P10635 whole entry): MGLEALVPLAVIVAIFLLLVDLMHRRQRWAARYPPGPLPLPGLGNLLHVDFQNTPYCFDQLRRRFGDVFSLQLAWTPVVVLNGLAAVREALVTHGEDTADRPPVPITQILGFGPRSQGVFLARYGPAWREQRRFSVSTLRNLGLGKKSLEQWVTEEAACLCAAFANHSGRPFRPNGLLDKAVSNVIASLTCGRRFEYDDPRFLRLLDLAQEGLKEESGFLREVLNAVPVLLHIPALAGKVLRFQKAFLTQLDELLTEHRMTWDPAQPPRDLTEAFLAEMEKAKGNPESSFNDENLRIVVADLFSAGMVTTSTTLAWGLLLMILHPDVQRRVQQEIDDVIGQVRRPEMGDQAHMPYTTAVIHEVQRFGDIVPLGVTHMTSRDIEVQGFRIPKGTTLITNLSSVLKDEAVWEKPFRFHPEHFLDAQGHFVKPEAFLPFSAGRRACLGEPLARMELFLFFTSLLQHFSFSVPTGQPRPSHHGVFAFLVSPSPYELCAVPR
Data set [2] has as its system Rattus norvegicus. Briefly: Oral bioavailability in rat assessed as (R)-3-(3-cyano-4-(2-hydroxy-3-(2-methyl-1-(naphthalen-2-yl)propan-2-ylamino)propoxy)phenyl)propanoic acid levels. The data set is classed as ADME, organism-based. Conditions: in vivo.
Data set [3] in a line: Half life in iv and po dosed rat. The data set is classed as ADME, organism-based. Conditions: in vivo.
The target of data set [4] is Sodium-dependent dopamine transporter (Homo sapiens, UniProt Q01959). Briefly: Inhibition of DAT.
Sequence of Sodium-dependent dopamine transporter (Q01959 whole entry): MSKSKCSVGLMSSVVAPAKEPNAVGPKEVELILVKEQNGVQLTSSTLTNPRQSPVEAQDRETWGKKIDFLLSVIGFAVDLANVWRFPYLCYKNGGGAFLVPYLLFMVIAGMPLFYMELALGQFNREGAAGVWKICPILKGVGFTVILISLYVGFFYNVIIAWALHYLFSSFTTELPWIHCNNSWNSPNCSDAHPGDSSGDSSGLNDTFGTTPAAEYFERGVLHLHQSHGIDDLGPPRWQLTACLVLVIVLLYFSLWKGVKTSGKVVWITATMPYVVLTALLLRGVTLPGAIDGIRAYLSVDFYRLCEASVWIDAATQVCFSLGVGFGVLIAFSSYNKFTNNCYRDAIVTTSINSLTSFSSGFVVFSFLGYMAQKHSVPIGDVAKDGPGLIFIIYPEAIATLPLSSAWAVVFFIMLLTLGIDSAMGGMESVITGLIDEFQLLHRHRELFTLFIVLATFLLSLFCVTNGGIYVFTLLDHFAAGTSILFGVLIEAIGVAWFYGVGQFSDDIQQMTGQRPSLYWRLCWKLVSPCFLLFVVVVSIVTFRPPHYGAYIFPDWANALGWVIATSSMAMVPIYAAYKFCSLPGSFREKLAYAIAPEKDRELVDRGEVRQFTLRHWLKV
A short description of data set [5]: Mean residence time in iv and po dosed rat. The class given is ADME, organism-based. The note with it: in vivo.
Data set [6] concerns Canis familiaris. Nature of the data set: Oral bioavailability in dog assessed as (R)-3-(3-cyano-4-(2-hydroxy-3-(2-methyl-1-(naphthalen-2-yl)propan-2-ylamino)propoxy)phenyl)propanoic acid levels. The data set is classed as ADME, organism-based, Canis lupus familiaris. The note with it: in vivo.
For data set [7], the target named is Beta-2 adrenergic receptor (Homo sapiens, UniProt P07550). Nature of the data set: Inhibition of beta2 adrenergic receptor.
Sequence of Beta-2 adrenergic receptor (P07550 whole entry): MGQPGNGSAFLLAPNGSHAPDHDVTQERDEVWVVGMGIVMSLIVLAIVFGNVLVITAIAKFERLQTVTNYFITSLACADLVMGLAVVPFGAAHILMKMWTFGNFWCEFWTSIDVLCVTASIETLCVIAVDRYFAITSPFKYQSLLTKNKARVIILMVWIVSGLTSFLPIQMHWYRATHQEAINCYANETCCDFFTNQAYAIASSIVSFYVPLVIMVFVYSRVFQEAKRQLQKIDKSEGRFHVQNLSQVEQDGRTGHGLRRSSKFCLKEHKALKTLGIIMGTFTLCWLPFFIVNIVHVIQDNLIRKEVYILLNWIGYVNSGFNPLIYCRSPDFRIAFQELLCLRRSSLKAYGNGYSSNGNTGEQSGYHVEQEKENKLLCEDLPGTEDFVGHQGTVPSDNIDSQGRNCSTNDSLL
Data set [8] addresses Sodium-dependent noradrenaline transporter (Homo sapiens, UniProt P23975). Nature of the data set: Inhibition of NET.
Data set [9] relates to Canis familiaris. Briefly: Cmax in dog assessed as (R)-3-(3-cyano-4-(2-hydroxy-3-(2-methyl-1-(naphthalen-2-yl)propan-2-ylamino)propoxy)phenyl)propanoic acid levels at 23.4 mg/kg, po. Also on record: dose 23.4 mg/kg, route oral. Conditions: in vivo. The class given is ADME, organism-based, Canis lupus familiaris.
Data set [10] concerns Canis familiaris. Briefly: Tmax in dog assessed as (R)-3-(3-cyano-4-(2-hydroxy-3-(2-methyl-1-(naphthalen-2-yl)propan-2-ylamino)propoxy)phenyl)propanoic acid levels at 23.4 mg/kg, po. Also on record: dose 23.4 mg/kg, route oral. The data set is classed as ADME, organism-based, Canis lupus familiaris. Conditions: in vivo.
Data set [11] is described as follows: Mean residence time in iv and po dosed dog. The class given is ADME, organism-based, Canis lupus familiaris. Conditions: in vivo.
The target of data set [12] is Sodium-dependent serotonin transporter (Homo sapiens, UniProt P31645). Briefly: Inhibition of SERT.
Sequence of Sodium-dependent serotonin transporter (P31645 whole entry): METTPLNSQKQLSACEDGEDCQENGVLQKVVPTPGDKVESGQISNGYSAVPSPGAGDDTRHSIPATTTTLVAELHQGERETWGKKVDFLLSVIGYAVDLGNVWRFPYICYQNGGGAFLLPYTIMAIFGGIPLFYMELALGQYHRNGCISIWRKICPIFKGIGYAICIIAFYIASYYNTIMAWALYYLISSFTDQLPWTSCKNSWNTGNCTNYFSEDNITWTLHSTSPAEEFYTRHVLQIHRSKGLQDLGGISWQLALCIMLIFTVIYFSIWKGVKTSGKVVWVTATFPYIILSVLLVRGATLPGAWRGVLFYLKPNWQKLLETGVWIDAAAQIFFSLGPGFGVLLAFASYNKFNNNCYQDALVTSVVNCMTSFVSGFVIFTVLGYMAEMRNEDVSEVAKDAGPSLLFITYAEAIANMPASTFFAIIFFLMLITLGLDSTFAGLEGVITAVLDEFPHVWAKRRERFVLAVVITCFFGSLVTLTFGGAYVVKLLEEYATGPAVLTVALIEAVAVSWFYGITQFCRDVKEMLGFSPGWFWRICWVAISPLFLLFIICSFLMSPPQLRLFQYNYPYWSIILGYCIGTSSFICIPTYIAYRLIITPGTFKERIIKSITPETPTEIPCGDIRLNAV
Data set [13] has as its target T1, Extracellular calcium-sensing receptor. Briefly: Antagonist activity at human calcium receptor expressed in HEK293 4.0-7 cells assessed as inhibition of intracellular calcium release by FLIPR assay. The data set is classed as functional, cell-based. In general terms: Calcium flux is commonly read through the fluorescence of an indicator in the cells.
Data set [14] in a line: Half life in iv and po dosed dog. The data set is classed as ADME, organism-based, Canis lupus familiaris. Conditions: in vivo.
The nature of data set [15]: Volume of distribution at steady state in iv and po dosed rat. Conditions: in vivo, read-out: Vdss. The class given is ADME, organism-based.
Data set [16] is described as follows: Clearance in iv and po dosed rat. The class given is ADME, organism-based. The note with it: in vivo.
In data set [17] the target is Voltage-gated inwardly rectifying potassium channel KCNH2 (Homo sapiens, UniProt Q12809).
Sequence of Voltage-gated inwardly rectifying potassium channel KCNH2 (Q12809 whole entry): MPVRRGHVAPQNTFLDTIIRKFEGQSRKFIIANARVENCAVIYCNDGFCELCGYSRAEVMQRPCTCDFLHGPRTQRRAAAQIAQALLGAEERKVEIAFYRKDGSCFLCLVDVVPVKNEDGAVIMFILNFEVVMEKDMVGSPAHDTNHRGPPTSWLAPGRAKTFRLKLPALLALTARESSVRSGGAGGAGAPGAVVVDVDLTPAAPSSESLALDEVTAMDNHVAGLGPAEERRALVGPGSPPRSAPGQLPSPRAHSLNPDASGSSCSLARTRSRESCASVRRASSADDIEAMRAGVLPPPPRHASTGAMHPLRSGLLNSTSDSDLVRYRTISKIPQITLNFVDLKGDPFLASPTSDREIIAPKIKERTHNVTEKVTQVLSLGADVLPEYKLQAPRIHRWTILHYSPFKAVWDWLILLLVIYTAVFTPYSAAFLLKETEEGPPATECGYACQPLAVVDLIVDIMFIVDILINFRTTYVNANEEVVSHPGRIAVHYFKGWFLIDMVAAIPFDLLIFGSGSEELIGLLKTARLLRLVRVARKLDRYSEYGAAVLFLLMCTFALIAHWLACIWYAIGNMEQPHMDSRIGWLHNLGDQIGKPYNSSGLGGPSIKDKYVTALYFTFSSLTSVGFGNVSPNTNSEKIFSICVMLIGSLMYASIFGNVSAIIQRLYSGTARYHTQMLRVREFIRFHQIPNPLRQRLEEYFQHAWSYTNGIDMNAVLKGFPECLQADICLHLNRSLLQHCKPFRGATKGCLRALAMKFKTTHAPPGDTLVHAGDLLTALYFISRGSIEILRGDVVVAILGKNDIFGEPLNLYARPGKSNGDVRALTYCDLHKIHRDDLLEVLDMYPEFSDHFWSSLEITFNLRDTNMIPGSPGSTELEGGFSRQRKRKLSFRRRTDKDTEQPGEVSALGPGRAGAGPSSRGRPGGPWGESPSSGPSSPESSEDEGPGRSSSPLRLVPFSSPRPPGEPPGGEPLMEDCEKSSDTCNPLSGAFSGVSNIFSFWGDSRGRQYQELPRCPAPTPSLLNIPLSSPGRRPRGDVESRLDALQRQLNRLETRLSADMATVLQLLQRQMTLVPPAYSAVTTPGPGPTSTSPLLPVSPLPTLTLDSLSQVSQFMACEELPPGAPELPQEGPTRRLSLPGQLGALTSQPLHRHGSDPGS
Data set [18] is described as follows: Oral bioavailability in rat. The data set is classed as ADME, organism-based. Conditions: in vivo.
For data set [19], the system named is Canis familiaris. Briefly: Metabolic stability in intraportal dosed dog assessed as hepatic first pass. The class given is ADME, organism-based, Canis lupus familiaris. Conditions: in vivo, other.
Data set [20] can be described thus: Clearance in iv and po dosed dog. The data set is classed as ADME, organism-based, Canis lupus familiaris. Conditions: in vivo.
Data set [21] in a line: Volume of distribution at steady state in iv and po dosed dog. The class given is ADME, organism-based, Canis lupus familiaris. The note with it: in vivo, read-out: Vdss.
Data set [22] concerns Rattus norvegicus. Nature of the data set: Metabolic stability in intraportal dosed rat assessed as hepatic first pass. The class given is ADME, organism-based. Conditions: in vivo, other.

Sequence of Sodium-dependent noradrenaline transporter (P23975 whole entry): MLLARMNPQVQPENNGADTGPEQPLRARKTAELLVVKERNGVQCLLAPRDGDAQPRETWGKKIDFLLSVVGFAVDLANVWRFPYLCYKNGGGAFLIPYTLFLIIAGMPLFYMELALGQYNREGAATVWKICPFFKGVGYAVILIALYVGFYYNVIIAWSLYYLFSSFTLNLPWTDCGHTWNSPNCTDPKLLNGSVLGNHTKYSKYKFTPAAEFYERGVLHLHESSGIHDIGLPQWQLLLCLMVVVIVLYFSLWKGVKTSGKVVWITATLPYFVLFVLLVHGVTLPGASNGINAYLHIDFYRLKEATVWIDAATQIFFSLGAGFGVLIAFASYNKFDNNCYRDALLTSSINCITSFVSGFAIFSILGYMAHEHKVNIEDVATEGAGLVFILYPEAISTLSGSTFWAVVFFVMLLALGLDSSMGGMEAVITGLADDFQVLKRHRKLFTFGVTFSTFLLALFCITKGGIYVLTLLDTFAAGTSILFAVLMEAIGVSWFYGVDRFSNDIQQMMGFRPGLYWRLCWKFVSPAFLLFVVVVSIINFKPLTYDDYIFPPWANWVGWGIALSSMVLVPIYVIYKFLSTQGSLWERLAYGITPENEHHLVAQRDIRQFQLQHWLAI

Turning to `CCOC(=O)CCc1ccc(OC[C@H](O)CNC(C)(C)Cc2ccc3ccccc3c2)c(C#N)c1.Cl`, the negative logarithm of the IC50 (pIC50) in [1] is 8.52; at Cytochrome P450 2D6, 5.52; in [4], 7.23; in [7], 4.85; in [8], 7.43; in data set [12], 7.11. In [13], the pIC50 was 7.47. In addition, the results for the F in the data set with Rattus norvegicus [2] and in the data set with Canis familiaris [6] were 9.5% and 9.1%, respectively. For the same compound, the figures for the half-life in data set [3] and in data set [14] were 52.8 min and 73.8 min, respectively. Further, the MRT was determined as 42 min in data set [5] and 82.2 min in data set [11]. The highest concentration (Cmax) in the data set on Canis familiaris [9] turned out to be 597 ng/mL. Moreover, the Tmax with Canis familiaris [10] came out at 30 min.
Consider `CC(C)(Cc1ccc2ccccc2c1)NC[C@@H](O)COc1cccc(Cl)c1C#N`, for which the negative-log IC50 (pIC50) in [1] was 8.52; at Cytochrome P450 2D6, 7.35; in data set [7], 5.37; in [17], 8.52; in [13] it was 7.24. Besides, the Vd in [15] came out at 11 L/kg. The half-life in data set [3] is 126 min. The MRT in data set [5] came out at 150 min. In addition, the clearance in [16] was determined as 73.8 mL/min/kg. The compound further showed a bioavailability in data set [18] of 11.4%.
Consider `CC(C)(Cc1ccc2ccccc2c1)NC[C@@H](O)COc1ccccc1C#N`, for which the pIC50 is 8.52 in [1]; 7.00 against Cytochrome P450 2D6; 8.70 in data set [4]; 8.52 in data set [8]; 8.49 in data set [17]; 8.52 in [12]. Besides, the pIC50 in [13] is 7.74.
For the compound `COc1ccc(CC(C)(C)NC[C@H](O)COc2cccc3[nH]c(=O)[nH]c23)cc1`, the pIC50 is 4.50 in [1]; 5.90 against Cytochrome P450 2D6; 8.89 in data set [7]; 7.93 in [17]; 4.96 in [13].
For `CC(C)(Cc1ccc2ccccc2c1)NC[C@@H](O)COc1ccc(CCC(=O)O)cc1C#N`, the pIC50 in data set [1] is 7.66; against Cytochrome P450 2D6, < 4.30; in data set [4] it was 5.55; in [7], < 4.52; in data set [8], 5.27; in [17] it was 7.49. Moreover, the negative logarithm of the IC50 (pIC50) in [12] is 7.64; in data set [13], 6.70. The values for the Activity in the data set with Canis familiaris [19] and in the data set on Rattus norvegicus [22] were 90% and 68%, respectively. In addition, the Vd in data set [15] amounted to 1.18 L/kg; in data set [21] it was 0.78 L/kg. Besides, the half-life in data set [3] is 33.6 min; in [14], 73.8 min. Also, the mean residence time MRT in data set [5] came to 19.2 min; in data set [11], 51 min. In addition, the clearance came to 15.4 mL/min/kg in [20] and 63.6 mL/min/kg in [16]. The compound further yielded a bioavailability in [18] of 0.29%.
As to `CC(C)(Cc1ccc2ccccc2c1)NC[C@@H](O)COc1ccc(CCC(=O)O)cc1`, the pIC50 in data set [1] was 5.32; against Cytochrome P450 2D6, 4.28; in data set [4], 5.43; in data set [7], < 4.52; in [8] it was 4.80; in data set [17], 7.41. The negative-log IC50 (pIC50) in data set [12] is 7.17; in data set [13], < 4.60. Moreover, the Vd in [15] is 2.1 L/kg. For the same compound, the half-life in data set [3] was 24 min. The compound further returned an MRT in data set [5] of 18 min. This compound returned a clearance in [16] of 118 mL/min/kg. Also, in data set [18], the bioavailability was found to be 4%.
